Measured values published in US11771737B2, “Treating or preventing adverse liver conditions” (priority 2017, dated 2023).

Experiments:
CXCL16 [1] = experiment: CXCL16 mRNA in SK-HEP1 cells administered bile acids; assay type: cell-based, human; conditions: 24 hours
Description: FIG. 34A is a dot plot showing CXCL16 mRNA levels measured by real-time PCR in SK-HEP1 cells administered different bile acids, in accordance with embodiments of the invention. n=6, p<0.05, one-way ANOVA.
(§1) Primary mice liver sinusoidal endothelia cells were isolated as previously described (Limmer et al., Nat. Med., 6: 1348-1354 (2000), incorporated by reference herein). Briefly, mice were CO2 euthanized, and then the portal vein was cannulated, and the liver was perfused with 0.05% collagenase in Ca^2+ deprived medium. Liver cells were dissociated, and parenchymal cells were killed by incubation in 0.04% collagenase in Gey's balanced salt solution at 37° C. for 15 minutes. Then density gradient centrifugation was performed using Nycodenz solution at the final solution of 1.089 g/cm^3. Liver sinusoidal endothelial cells (LSEC) were isolated using anti-LSEC microbeads (Miltenyi, Bergisch Gladbach, Germany) according to the manufacturer's instructions. LSECs or the human SK-HEP1 cell line (ATCC, HTB-52) were administered different bile acids for 24 hours. Gene expression was analyzed by real-time PCR. Taurocholic acid (TCA), chenodeoxycholic acid (CDCA), deoxycholic acid (DCA), and taurodeoxycholic acid (TDCA) were purchased from Sigma (now Millpore-Sigma, St. Louis, Mo., USA). […]

hepatic NKT cells [2] = experiment: In vivo bile acids feeding, hepatic NKT cell levels; conditions: ABX-administered mice, oral gavage 6 mg/15 g body weight at 48, 24 and 16 hrs
Description: Mice were kept on ABX cocktail and fresh ABX was replaced every other day. Mice were fed with bile acids by oral gavage 48, 24 and 16 hrs prior to sacrifice.

CXCL16 [3] = experiment: CXCL16 mRNA in primary murine LSECs administered bile acids; assay type: cell-based, mice; conditions: primary murine LSECs in vitro, 24 hours
Description: FIG. 28E is a dot plot showing CXCL16 mRNA levels of isolated LSECs administered different bile acids, in accordance with embodiments of the invention. n=5, p<0.05, one-way ANOVA.
FIG. 28F is a dot plot showing CXCL16 mRNA levels of isolated LSECs administered a combination of T-b-MCA with T-w-MCA or ω-MCA. n=5, p<0.05, one-way ANOVA.
as §1, with “PCR.” for “PCR. Taurocholic acid (TCA), chenodeoxycholic acid (CDCA), deoxycholic acid (DCA), and taurodeoxycholic acid (TDCA) were purchased from Sigma (now Millpore-Sigma, St. Louis, Mo., USA).”

[4] = reported; cited from earlier work
hepatic NKT cells [5] = experiment: Flow cytometry of liver and spleen immune cell subsets of treated mice; assay type: in vivo; conditions: single antibiotic; for hepatic CD4+ or CD8+ T cells: FIGS. 29H and 29I; for hepatic NKT cells: naïve C57BL/6 mice
Experimental: Cells were surface-labelled with the indicated antibodies for 15 min at 4° C. Intracellular staining using a Foxp3/transcription factor staining buffer set (eBioscience, now part of ThermoFisher Scientific, Waltham, Mass., USA) was used according the manufacturer's instructions. Flow cytometry was performed on a BD LSRFortessa platform (BD Biosciences, San Jose, Calif., USA) and results were analyzed using FlowJo software version 9.3.1.2 (TreeStar, Ashland, Oreg., USA). Dead cells were excluded by using live/dead fixable near-IR dead cell staining kit (ThermoFisher Scientific).
The following antibodies were used for flow cytometry analysis: anti-TCRβ-BV510 (clone H57-587, Biolegend, San Diego, Calif., USA), PBS57/CD1d-tetramer-APC (NIH core facility, Bethesda, Md., USA), anti-CXCR6-FITC (clone SA051D1, Biolegend), anti-CD3-PE (clone 17A2, Biolegend), anti-CD4-PE (clone RM4-5, Biolegend), anti-CD4-Alexa Fluor 700 (clone GK1.5, Biolegend), anti-CD8-BV210 (clone 53-61 Biolegend), anti-CD19-PerCP/Cy5.5 (clone eBiolD3, eBioscience), anti-CD49b (clone DX5, eBioscience), anti-TCRγ/δ-PE, (clone GL3, BD pharmingen, BD Biosciences), anti-CD11b-BV421 (clone M1/70, Biolegend), anti-Ly6G-Alexa Fluor 700 (clone 1A8, Biolegend), anti-Ly6C-APC (clone HK1.4, Biolegend), anti-CD44-PE/Cy7 (clone IM7, eBioscience), anti-CD62L-PerCP/Cy5.5 (MEL-14, Biolegend), anti-CD69-Pacific blue (clone H1.2F3, Biolegend), anti-CD25-FITC (clone 7D4, BD pharmingen), anti-4-1BB-PE (clone 17B5, Biolegend), anti-Foxp3-Alexa Fluor 488 (clone 22F6, Biolegend), anti-Tbet-Pacific Blue (clone 4B10, Biolegend), anti-RORγ-PE (clone B2D, eBioscience), anti-PLZF-PerCP/Cy5.5 (clone 9E12, Biolegend), anti-CD1d-PE (clone 1B1, eBioscience), anti-IFNγ-PE (clone XMG1.2, BD Biosciences), and anti-TNFα-PerCP/Cy5.5 (clone MP6-XT22, Biolegend).
The following markers were used for identifying different immune cell subsets: TCRβ^+CD1d-Teteramer^+ for NKT cells, CD3^+CD4^hi for hepatic CD4^+ T cells, CD3^+CD8^+ for CD8^+ T cells, CD3^−CD19^+ for B cells, CD3^−CD49b^+ for NK cells, CD3^+TCRγ/δ^+ for γ/δ T cells, CD11b^+Ly6G^+Ly6C^lo for G-MDSC. Absolute numbers were calculated by multiplying frequencies obtained from flow cytometry by the total live mononuclear cell count, and then divided by liver weight.

[6] = oral vancomycin, cited from earlier work
stool bacteria = experiment: Stool bacteria analysis by 16S rRNA sequencing; assay type: in vivo, mice
Experimental: (§2) FIG. 33A is a line graph showing stool bacteria analysis performed by 16S rRNA sequencing, in accordance with embodiments of the invention. Five week old mice were administered vancomycin for one week. Then vancomycin was stopped, and mice were given oral gavage of C. scindens or vehicle (cessation). Measurements were taken twenty-four hours after gavage. Alpha diversity is shown.
as §2, with “33B” for “33A”, “dot plot” for “line graph”, “Beta” for “Alpha”
Mice were fed with vancomycin in drinking water (Hospira, 0.5 g/L) for one week. Fresh antibiotic water was replaced every other day. One week later vancomycin was stopped, and the mice were given oral gavage of 10^9 C. scindens or vehicle (anaerobic glycerol) every day for 5 days. C. scindens was purchased from ATCC (35704), and grown under anaerobic conditions. One day after gavage, the colonization of C. scindens were confirmed by real-time PCR using primers specific for C. scindens.
Mouse stool DNA extraction and 16S V4 tregion amplification were performed on the liquid handling robots (epMotion 5075 and epMotion 5073, Eppendorf, Hamburg, Germany). The V4 region of the 16S rDNA gene (515F-806R) was sequenced, generating partially overlapping, paired-end reads on the Illumina MiSeq platform (Illumina, San Diego, Calif., USA). After quality control filtering, a total of 3,979,728 reads were processed with an average of 132,657 reads per sample. The demultiplexed FASTQ files containing the 16S rRNA gene sequences were filtered for chimeric sequences using the USEARCH (Edgar, Bioinformatics, 26: 2460-2461 (2010), incorporated by reference herein; version 8.1.1831) utility's UCHIME implementation and the ‘gold’ database (version microbiomeutil-r20110519). The reads were then binned into Operational Taxonomic Units (OTUs) at 97% similarity using USEARCH's cluster_otus command. The OTUs thus obtained were classified and aligned using QIIME (Caporaso et al., Nat. Methods, 7: 335-336 (2010), incorporated by reference herein; version 1.9.1) scripts. The assign_taxonomy.py script was used to assign taxonomy using the default RDP method (Wang et al., Appl. Environ. Microbiol., 73: 5261-5267 (2007), incorporated by reference herein) and the default GreenGenes database (DeSantis et al., Appl. Environ. Microbiol., 72: 5069-5072 (2006), incorporated by reference herein). This provided insight into the larger trends at higher taxonomic levels (such as order Clostridiales).
Next, the possible role of Clostridium species on liver NKT cell accumulation was tested in a colonization experiment. Clostridium scindens was chosen because it is commonly found in both mice and human and has a conserved bai (“bile acid inducible”) gene operon for the 7α-dehydroxylation reaction. Mice were fed with vancomycin for one week to induce hepatic NKT cells, then vancomycin was stopped, and the mice were given C. scindens or vehicle. The successful colonization with Clostridium scindens was confirmed (FIG. 32). One day after oral gavage, fecal bacterial were analyzed by 16S rRNA sequencing (FIGS. 33A and 33B, Table 1).

Clostridum Cluster XIVa = experiment: Stool levels of Clostridium Cluster XIVa by real-time PCR; assay type: in vivo, mice; conditions: single antibiotic administration
Experimental: FIG. 31 is a dot plot showing the stool levels of Clostridum Cluster XIVa from single antibiotic administration measured by real-time PCR. Mice were administered vancomycin, neomycin, cefoparazone or H2O. n=4 for H2O, 10 for vancomycin, 5 for neomycin, p<0.05, one-way ANOVA.
The 7α-dehydroxylation reaction is the most quantitatively important process performed by the gut bacteria in the production of secondary bile acids. This multistep biochemical process is restricted to a narrow phylogenetic group of gram-positive bacterial species belonging to the Clostridium cluster XIV.

[7] = fecal bacteria, one day after oral gavage

| Molecule | cxcl16 mRNA expression (CXCL16 [1]) | bile acids in the gut [4] | hepatic CD4+ or CD8+ T cells (hepatic NKT cells [5]) | hepatic NKT cells (hepatic NKT cells [5]) | Clostridium in stool (Clostridum Cluster XIVa) | other results |
| --- | --- | --- | --- | --- | --- | --- |
| C[C@H](CCC(=O)O)[C@H]1CC[C@H]2[C@@H]3[C@H](O)C[C@@H]4C[C@H](O)CC[C@]4(C)[C@H]3CC[C@]12C [CDCA, chenodeoxycholic acid] | induced | – | – | – | – | hepatic NKT accumulation (hepatic NKT cells [2]): enhanced NKT cell accumulation |
| C[C@H](CCC(=O)NCCS(=O)(=O)O)[C@H]1CC[C@H]2[C@@H]3[C@@H](O)[C@@H](O)[C@@H]4C[C@H](O)CC[C@]4(C)[C@H]3CC[C@]12C [T-β-MCA, Tauro-β-muricholic acid] | – | – | – | – | – | cxcl16 mRNA expression (CXCL16 [3]): induced |
| C[C@H](CCC(=O)NCCS(=O)(=O)O)[C@H]1CC[C@H]2[C@@H]3[C@H](O)C[C@@H]4C[C@H](O)CC[C@]4(C)[C@H]3C[C@H](O)[C@]12C [TCA, Taurocholic acid] | induced | – | – | – | – | – |
| CCN1CCN(C(=O)N[C@@H](C(=O)N[C@@H]2C(=O)N3C(C(=O)O)=C(CSc4nnnn4C)CS[C@H]23)c2ccc(O)cc2)C(=O)C1=O [cefoperazone] | – | deplete secondary bile acids and increase primary bile acids in the gut | No significant changes | increase of liver NKT cells | – | – |
| CN[C@H](CC(C)C)C(=O)N[C@H]1C(=O)N[C@@H](CC(N)=O)C(=O)N[C@H]2C(=O)N[C@H]3C(=O)N[C@H](C(=O)N[C@H](C(=O)O)c4cc(O)cc(O)c4-c4cc3ccc4O)[C@H](O)c3ccc(c(Cl)c3)Oc3cc2cc(c3O[C@@H]2O[C@H](CO)[C@@H](O)[C@H](O)[C@H]2O[C@H]2C[C@](C)(N)[C@H](O)[C@H](C)O2)Oc2ccc(cc2Cl)[C@H]1O [vancomycin] | – | deplete secondary bile acids and increase primary bile acids in the gut | No significant changes | sufficient to increase hepatic NKT cells | depleted Clostridium | fecal secondary bile acids ([6]; obese individuals): decreased fecal secondary bile acids; primary bile acids in plasma ([6]; postprandial): postprandial increase in primary bile acids in plasma; Bacteroidales (stool bacteria; [7]): 0.0%; Burkholderiales (stool bacteria; [7]): 4.4%; Clostridiales (stool bacteria; [7]): 3.9%; Enterobacteriales (stool bacteria; [7]): 10.7%; Lactobacillales (stool bacteria; [7]): 43.7%; Verrucomicrobiales (stool bacteria; [7]): 34.3%; change of stool bacteria populations, in words (stool bacteria; vancomycin compared to H2O group, C. scindens gavage after vancomycin): reduction of Clostridiales and Bacteroidales but an expansion of Verrucomicrobiales |
| neomycin | – | – | No significant changes | little effect | could not remove Clostridium | – |
